In patent US20160362693A1, “Reagents and Methods for Treating Cancer” (PeptiMed, Inc., priority 2010, published 2016):

How the values were obtained:
Assay type in all cases: cell-based, human
ES-2 ovarian tumor cells = experiment: Viability of ovarian tumor cells after siRNA transfection (trypan blue count); details: 50 nM siRNA, DharmaFECT, 96 hours, vs control siRNA
Method: (§1) Each of the five siRNA duplexes presented in Table 2 were introduced into cultures of ovarian tumor cells at a concentration of 50 nM. Briefly, fifty to one hundred thousand tumor cells were added to each well of a 6 well plate and allowed to attach to the surface and grow for 18 hours in DMEM medium containing 10% fetal bovine serum. A total of 100 pmol of each siRNA was introduced into cells using 1 microliter DharmaFECT (Thermo Scientific) reagent in 2 ml total volume of media. Cells were incubated with the siRNA for 96 hours. The viability of the ovarian tumor cells was assessed by counting cells with a hemocytometer following trypan blue exclusion staining. Each of the five sequences reduced the number of viable cells at least 40% (compared to control siRNA-treated cells) in at least one ovarian tumor cell line.

PA-1 ovarian tumor cells = experiment: as above; details: 50 nM siRNA, DharmaFECT, 96 hours, vs control siRNA
Method: as §1

[1] = system: Caov-3 ovarian tumor cells; experiment: as above; details: 50 nM siRNA, DharmaFECT, 96 hours, vs control siRNA
Method: as §1

[2] = system: OV-90 ovarian tumor cells; experiment: as above; details: 50 nM siRNA, DharmaFECT, 96 hours, vs control siRNA
Method: as §1

[3] = system: UWB1.289 ovarian tumor cells; experiment: as above; details: 50 nM siRNA, DharmaFECT, 96 hours, vs control siRNA
Method: as §1

[4] = system: TOV-112D ovarian tumor cells; experiment: as above; details: 50 nM siRNA, DharmaFECT, 96 hours, vs control siRNA
Method: as §1

[5] = system: OVCAR3 ovarian tumor cells; experiment: as above; details: 50 nM siRNA, DharmaFECT, 96 hours, vs control siRNA
Method: as §1

[6] = system: SK-OV-3 ovarian tumor cells; experiment: as above; details: 50 nM siRNA, DharmaFECT, 96 hours, vs control siRNA
Method: as §1

MCF-7 breast tumor cells = experiment: Viability of breast tumor cells after siRNA transfection (trypan blue count); parameters: dose or concentration left out as unconfirmed; details: DharmaFECT, 96 hours, vs control siRNA
Method: as §1, with “of breast” for “of ovarian”, “serum. […]” for “serum. A total of 100 pmol of each siRNA was introduced into cells using 1 microliter DharmaFECT (Thermo Scientific) reagent in 2 ml total volume of media.”, “the breast” for “the ovarian”, “blue exclusion.” for “blue exclusion staining.”

Hs832.Tc cells = experiment: Viability of ovarian cells after siRNA transfection (trypan blue count); details: 50 nM siRNA, DharmaFECT, 96 hours, vs control siRNA
Method: as §1

[7] = system: MDA-MB-231 breast tumor cells; experiment: Viability of breast tumor cells after siRNA transfection (trypan blue count); parameters: dose or concentration left out as unconfirmed; details: DharmaFECT, 96 hours, vs control siRNA
[8] = system: LNCaP prostate tumor cells; experiment: Viability of prostate tumor cells after siRNA transfection (trypan blue count); details: 50 nM siRNA, DharmaFECT, 96 hours, vs control siRNA
Method: as §1, with “prostate” for “ovarian”, “[…]” for “100 pmol”, “DharmaFECT” for “DharmaFECT (Thermo Scientific)”

PC3 prostate tumor cells = experiment: as above; details: 50 nM siRNA, DharmaFECT, 96 hours, vs control siRNA
Method: as §1, with “prostate” for “ovarian”, “[…]” for “100 pmol”, “DharmaFECT” for “DharmaFECT (Thermo Scientific)”

TOV-112D cells = experiment: Concentration-dependent effect of siRNA on cell survival (IC50); details: cell viability 96 hours after adding siRNA, FIG. 6B, read-out: IC50 (concentration of siRNA that inhibited growth by 50%)
Method: (§2) FIG. 6A and FIG. 6B show concentration-dependent effects of siRNA against the EVI1 gene on cell survival. Ovarian tumor cells ES-2 and TOV-112D were seeded into each well of a 12 well plate. Increasing concentrations of siRNA were introduced into the cells using 1 microliter of Dharmafect reagent in 2 ml of medium. The number of viable cells was determined using trypan blue staining and counting in a hemacytometer.
(§3) For a substance to be an effective cancer therapeutic agent, it needs a robust cancer killing effect at very low concentrations, which for siRNA will be understood to be at subnanomolar concentrations in cell culture. The concentration of siRNA that inhibited growth of ovarian tumor cells by 50% (IC50) was determined by measuring cell viability 96 hours after adding one of various dose levels of siRNA to identical numbers of tumor cells in culture. […] For TOV-112D cells, the IC50 of siEVI1-979 (SEQ ID NOs 9-10) is ˜4 nM, and the IC50 of siEVI1-2910 (SEQ ID NOs 13-14) is ˜0.8 nM. To further identify potent sequences that inhibit the growth of ovarian tumor cells, sequences of up to 10 bp upstream and 10 bp downstream of siEVI1-2910 (SEQ ID NOs: 121-160) were prepared and administered to ES-2 and TOV-112D ovarian tumor cells at a concentration of 2.5 nM using DharmaFECT transfection reagent. FIG. 7A depicts the results of percent growth inhibition of TOV-112D ovarian tumor cells relative to a transfection control. […] FIG. 7B depicts the results of percent growth inhibition of ES-2 ovarian tumor cells relative to a transfection control.

ES-2 cells = experiment: as above; details: cell viability 96 hours after adding siRNA, FIG. 6A, read-out: IC50 (concentration of siRNA that inhibited growth by 50%)
Method: as §2, §3

| Substance | Response to siRNA (% growth inhibition) (ES-2 ovarian tumor cells) [%] | Response to siRNA (% growth inhibition) (PA-1 ovarian tumor cells) [%] | Response to siRNA (% growth inhibition) [1] [%] | Response to siRNA (% growth inhibition) [2] [%] | Response to siRNA (% growth inhibition) [3] [%] | Response to siRNA (% growth inhibition) [4] [%] | Response to siRNA (% growth inhibition) [5] [%] | Response to siRNA (% growth inhibition) [6] [%] | Response to siRNA (% growth inhibition) (MCF-7 breast tumor cells) [%] | Response to siRNA (% growth inhibition) (Hs832.Tc cells) [%] | Response to siRNA (% growth inhibition) [7] [%] | Response to siRNA (% growth inhibition) [8] [%] | Response to siRNA (% growth inhibition) (PC3 prostate tumor cells) [%] | IC50 (TOV-112D cells) [nM] | IC50 (ES-2 cells) [nM] |
| --- | --- | --- | --- | --- | --- | --- | --- | --- | --- | --- | --- | --- | --- | --- | --- |
| siEVI1-992: siRNA duplex; sense 5′-ggacaaauguucagcacuauu-3′ SEQ ID NO: 11, antisense SEQ ID NO: 12 (sense GGACAAAUGUUCAGCACUAUU; antisense UAGUGCUGAACAUUUGUCCUU; listed as RNA, chemistry not given here) | 54 | 0 | 46 | 25 | 73 | 70 | 0 | 31 | 0 | 10 | 23 | 12 | 35 | – | – |
| siEVI1-979: siRNA duplex; sense 5′-gugcaaagacuguggacaauu-3′ SEQ ID NO: 9, antisense SEQ ID NO: 10 (sense GUGCAAAGACUGUGGACAAUU; antisense UUGUCCACAGUCUUUGCACUU; listed as RNA, chemistry not given here) | 63 | 0 | 34 | 16 | 14 | 79 | 60 | 42 | 0 | 0 | 14 | 12 | 8 | ~4 | ~2.5 |
| siEVI1-2994: siRNA duplex; sense 5′-augaagaaguugaagaugauu-3′ SEQ ID NO: 15, antisense SEQ ID NO: 16 (sense AUGAAGAAGUUGAAGAUGAUU; antisense UCAUCUUCAACUUCUUCAUUU; listed as RNA, chemistry not given here) | 54 | 18 | 28 | 33 | 0 | 70 | 0 | 0 | 57 | 0 | 21 | 12 | 25 | – | – |
| siEVI1-256: siRNA duplex; sense 5′-ccagauaaaugaucagauauu-3′ SEQ ID NO: 7, antisense SEQ ID NO: 8 (sense CCAGAUAAAUGAUCAGAUAUU; antisense UAUCUGAUCAUUUAUCUGGUU; listed as RNA, chemistry not given here) | 0 | 0 | 13 | 26 | 43 | 36 | 0 | 12 | 32 | 0 | 31 | 4 | 23 | – | – |
| siEVI1-2910: siRNA duplex; sense 5′-ggaauguggaggagagaauuu-3′ SEQ ID NO: 13, antisense SEQ ID NO: 14 (sense GGAAUGUGGAGGAGAGAAUUU; antisense AUUCUCUCCUCCACAUUCCUU; listed as RNA, chemistry not given here) | 92 | 0 | 47 | 23 | 67 | 85 | 73 | 12 | 67 | 0 | 21 | 46 | 53 | ~0.8 | ~0.5 |
